Measured values reported in patent EP0496452A1, “Novel endothelin receptor antagonists isolated from microbispora” (MERCK & CO. INC., priority 1991, dated 1992).
*1 amine or outer side, *2 acyl side, *3 side chain or, on linkers, in order; H or OH if unused. Where a SMILES comes first, the peptide text is derived from it. Bridges are numbered along the chain shown (N, C = ends). [ ]: non-standard residue; d: D form. The star is where a group is joined. dPhg(3,5-diOH) = N[C@@H](C(=O)O)c1cc(O)cc(O)c1; X2 = O=C([C@@H](N[*:1])c1cc(O)cc(O)c1)[*:2]; d(aThr) = C[C@@H](O)[C@@H](N)C(=O)O; Pyrrole2CO = O=C(c1ccc[nH]1)*; X1 = O=C(c1ccc(Cl)[nH]1)*

Experiments:
ET-A = target: T1, ET-A (Rattus norvegicus, UniProt P26684); experiment: 125I-ET-1 endothelin receptor binding assay, rat aorta membranes; conditions: 150 pM 125I-ET-1, 37° C
T1 construct: Membranes were prepared from rat hippocampus, and rat or cow aorta; from tissue; host or cells: rat aorta membranes
T1 sequence (P26684 21-426): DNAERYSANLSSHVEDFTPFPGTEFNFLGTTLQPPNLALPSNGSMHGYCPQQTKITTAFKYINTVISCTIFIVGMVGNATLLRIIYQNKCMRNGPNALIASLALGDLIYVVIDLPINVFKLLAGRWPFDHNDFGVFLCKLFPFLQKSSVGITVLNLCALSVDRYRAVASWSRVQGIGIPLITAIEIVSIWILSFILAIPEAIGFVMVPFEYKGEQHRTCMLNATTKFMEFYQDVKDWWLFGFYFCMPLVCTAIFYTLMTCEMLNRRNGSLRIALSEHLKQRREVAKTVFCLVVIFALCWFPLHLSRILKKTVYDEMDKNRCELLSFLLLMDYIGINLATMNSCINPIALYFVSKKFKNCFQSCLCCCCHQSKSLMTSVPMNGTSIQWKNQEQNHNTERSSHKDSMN
Protocol: (§1) The binding of cyclopeptides I, II and III to the endothelin receptor was determined in accordance with the assay described in detail immediately below. It is similar to the assay described in Ambar et al. (1989) Biochem. Biophys. Res. Commun. 158, 195-201; and Khoog et al. (1989) Febs Letters, 253, 199-202.
(§2) Endothelin-1 (ET-1) was purchased from Peptides International (Louisville, KY ). ¹²⁵I-ET-1 (2000 Ci/mMol) was purchased from Amersham (Arlington Heights, IL).
(§3) Membranes were prepared from rat hippocampus, and rat or cow aorta. Dissected tissue was homogenized twice for 30 seconds with a Brinkman Polytron [setting 10, Generator PTA 20 TS (Westbury, NY)] in ice cold 250 mM sucrose, 50 mM Tris-HCl pH 7.4 with 7 µg/ml pepstatin A and 0.5 µg/ml leupeptin. The crude particulate matter was removed by centrifugation at 750 x g for 10 min. The membranes were sedimented from the supernatant fraction by centrifugation at 48,000 g for 30 min. Membrane pellets were resuspended in the above buffer with protease inhibitors. Aliquots of these suspensions were stored at -70° C.
(§4) Binding studies with ¹²⁵I-ET-1 were conducted in 50 mM potassium phosphate pH 7.5 with 0.1% bovine serum albumin (BSA) using 12-well Shatron (Lier, Norway) cell harvester tube strips. ¹²⁵I-ET-1 concentrations were 25 pM for hippocampus, 150 pM for aorta. Samples were dissolved in dimethylsulfoxide (DMSO). Upon addition of the sample, the final DMSO concentration was 3%. Membranes were added last to start the binding reaction. The reaction mixture was incubated at 37° C for 30 or 60 minutes. Binding reactions were terminated using a Skatron cell harvester by filtration through glass fiber filter pads presoaked with 2% BSA. The samples on the pads were immediately washed with 150 mM NaCl 0.1% BSA. The pads were punched out and radioactivity was evaluated in a Beckman Gamma 5500 gamma counter (Fullerton, CA). Nonspecific binding was determined in the presence of 100 nM ET-1. The results of this binding assay are set out in the table of values below: TABLE VI

ET-B = target: T2, ET-B (Rattus norvegicus, UniProt P21451); experiment: 125I-ET-1 endothelin receptor binding assay, rat hippocampus membranes; conditions: 25 pM 125I-ET-1, 37° C
T2 construct: Membranes were prepared from rat hippocampus, and rat or cow aorta; from tissue; host or cells: rat hippocampus membranes
T2 sequence (P21451 27-442): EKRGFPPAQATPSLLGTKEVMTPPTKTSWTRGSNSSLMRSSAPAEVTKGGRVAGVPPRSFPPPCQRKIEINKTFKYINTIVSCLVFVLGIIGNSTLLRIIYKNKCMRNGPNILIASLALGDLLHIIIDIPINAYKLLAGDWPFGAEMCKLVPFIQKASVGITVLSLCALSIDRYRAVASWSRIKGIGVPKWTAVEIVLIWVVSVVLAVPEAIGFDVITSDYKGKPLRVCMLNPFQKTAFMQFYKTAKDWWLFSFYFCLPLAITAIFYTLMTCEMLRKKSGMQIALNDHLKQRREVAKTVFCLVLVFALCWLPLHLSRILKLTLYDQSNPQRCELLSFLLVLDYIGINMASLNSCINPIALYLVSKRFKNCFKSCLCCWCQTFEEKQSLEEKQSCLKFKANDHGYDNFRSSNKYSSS
Protocol: as §1, §2, §3, §4

[1] = Immunosuppressant activity (assay not described); conditions: may be attributable to assay differences

| SMILES | Ki (ET-A) [nM] | Ki (ET-B) [nM] | immunosuppressant activity [1] |
| --- | --- | --- | --- |
| C[C@H]1NC(=O)[C@@H](Cc2ccccc2)NC(=O)[C@H](NC(=O)[C@H](Cc2ccccc2)NC(=O)c2ccc(Cl)[nH]2)[C@@H](C)OC(=O)[C@@H](c2cc(O)cc(O)c2)NC(=O)[C@@H](c2cc(O)cc(O)c2)NC1=O [Compound III] (X1-F[d(aThr)][dF][dA][dPhg(3,5-diOH)][dPhg(3,5-diOH)]; ester 2-C) | 200 | 500 | no significant immunosuppressant activity |
| C[C@H]1NC(=O)[C@@H](Cc2ccccc2)NC(=O)[C@H](NC(=O)[C@H](Cc2ccccc2)NC(=O)c2ccc(Cl)[nH]2)[C@@H](C)OC(=O)[C@H](c2cc(O)cc(O)c2)NC(=O)[C@@H](c2cc(O)cc(O)c2)NC1=O [Compound II] (X1-F[d(aThr)][dF][dA][dPhg(3,5-diOH)][X2]; ester 2-C) | 3000 | 3000 | no significant immunosuppressant activity |
| C[C@H]1NC(=O)[C@@H](Cc2ccccc2)NC(=O)[C@H](NC(=O)[C@H](Cc2ccccc2)NC(=O)c2ccc[nH]2)[C@@H](C)OC(=O)[C@@H](c2cc(O)cc(O)c2)NC(=O)[C@@H](c2cc(O)cc(O)c2)NC1=O [Compound I] (Pyrrole2CO-F[d(aThr)][dF][dA][dPhg(3,5-diOH)][dPhg(3,5-diOH)]; ester 2-C) | 100 | 200 | – |
